Calls of active or inactive are those of the source. The rule behind the calls is not given here.
Experiments:
[1] = molecular target: T1, Bromodomain-containing protein 2 (Homo sapiens, UniProt P25440); test: TR-FRET assay (BRD2 BD1)
[2] = molecular target: T2, Bromodomain-containing protein 3 (Homo sapiens, UniProt Q15059); test: TR-FRET assay (BRD3 BD1)
[3] = molecular target: T2, Bromodomain-containing protein 3; test: TR-FRET assay (BRD3 BD2)
[4] = molecular target: T3, Bromodomain testis-specific protein (Homo sapiens, UniProt Q58F21); test: BRDT BD2 Bromoscan (DiscoverX)
[5] = molecular target: T1, Bromodomain-containing protein 2; test: BRD2(1,2) DiscoverX BROMOscan
[6] = molecular target: T1, Bromodomain-containing protein 2; test: BRD2(2) DiscoverX BROMOscan
[7] = molecular target: Bromodomain-containing protein 8 (Homo sapiens, UniProt Q9H0E9); test: BRD8(1) DiscoverX BROMOscan
[8] = molecular target: T3, Bromodomain testis-specific protein; test: BRDT(1,2) DiscoverX BROMOscan
[9] = molecular target: T3, Bromodomain testis-specific protein; test: BRDT(2) DiscoverX BROMOscan
[10] = molecular target: Bromodomain and PHD finger-containing protein 3 (Homo sapiens, UniProt Q9ULD4); test: BRPF3 DiscoverX BROMOscan
[11] = molecular target: Nucleosome-remodeling factor subunit BPTF (Homo sapiens, UniProt Q12830); test: FALZ DiscoverX BROMOscan
[12] = molecular target: SWI/SNF-related matrix-associated actin-dependent regulator of chromatin subfamily A member 2 (Homo sapiens, UniProt P51531); test: SMARCA2 DiscoverX BROMOscan
[13] = molecular target: E3 ubiquitin-protein ligase TRIM33 (Homo sapiens, UniProt Q9UPN9); test: TRIM33(PHD,Bromo.) DiscoverX BROMOscan
[14] = molecular target: Bromodomain and WD repeat-containing protein 1 (Homo sapiens, UniProt Q9NSI6); test: WDR9(2) DiscoverX BROMOscan
[15] = molecular target: 3',5'-cyclic-AMP phosphodiesterase 4B (Homo sapiens, UniProt Q07343); test: (§1) Cross screening panel
[16] = molecular target: 5-hydroxytryptamine receptor 1B (Homo sapiens, UniProt P28222); test: as §1
Sequence of 5-hydroxytryptamine receptor 1B (P28222 whole entry): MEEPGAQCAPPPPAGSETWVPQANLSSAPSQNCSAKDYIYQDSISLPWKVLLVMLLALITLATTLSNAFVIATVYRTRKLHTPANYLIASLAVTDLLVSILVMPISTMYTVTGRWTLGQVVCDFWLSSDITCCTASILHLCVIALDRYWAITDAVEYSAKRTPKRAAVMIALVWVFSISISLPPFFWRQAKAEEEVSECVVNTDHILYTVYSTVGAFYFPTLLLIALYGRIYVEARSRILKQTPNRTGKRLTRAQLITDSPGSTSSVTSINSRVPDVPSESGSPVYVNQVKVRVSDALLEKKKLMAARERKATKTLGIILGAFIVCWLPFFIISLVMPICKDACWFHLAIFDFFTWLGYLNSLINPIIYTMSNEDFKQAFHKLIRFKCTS

[17] = molecular target: T4, 5-hydroxytryptamine receptor 2A (Homo sapiens, UniProt P28223); test: as §1
T4 sequence (P28223 whole entry): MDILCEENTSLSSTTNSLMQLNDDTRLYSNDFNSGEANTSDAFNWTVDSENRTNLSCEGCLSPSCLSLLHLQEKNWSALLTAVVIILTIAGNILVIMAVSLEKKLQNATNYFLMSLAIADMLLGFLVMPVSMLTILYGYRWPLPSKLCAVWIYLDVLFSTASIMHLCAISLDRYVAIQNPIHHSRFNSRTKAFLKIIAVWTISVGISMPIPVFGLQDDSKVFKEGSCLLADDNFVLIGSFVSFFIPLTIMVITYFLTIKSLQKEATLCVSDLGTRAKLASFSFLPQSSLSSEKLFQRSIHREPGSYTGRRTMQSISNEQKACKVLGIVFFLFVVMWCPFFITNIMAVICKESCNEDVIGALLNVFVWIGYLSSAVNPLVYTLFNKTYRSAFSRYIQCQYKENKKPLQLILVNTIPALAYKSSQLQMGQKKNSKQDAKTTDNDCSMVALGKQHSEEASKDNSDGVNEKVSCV

[18] = molecular target: 5-hydroxytryptamine receptor 2C (Homo sapiens, UniProt P28335); test: as §1
[19] = molecular target: 5-hydroxytryptamine receptor 3A (Homo sapiens, UniProt P46098); test: as §1
Sequence of 5-hydroxytryptamine receptor 3A (P46098 whole entry): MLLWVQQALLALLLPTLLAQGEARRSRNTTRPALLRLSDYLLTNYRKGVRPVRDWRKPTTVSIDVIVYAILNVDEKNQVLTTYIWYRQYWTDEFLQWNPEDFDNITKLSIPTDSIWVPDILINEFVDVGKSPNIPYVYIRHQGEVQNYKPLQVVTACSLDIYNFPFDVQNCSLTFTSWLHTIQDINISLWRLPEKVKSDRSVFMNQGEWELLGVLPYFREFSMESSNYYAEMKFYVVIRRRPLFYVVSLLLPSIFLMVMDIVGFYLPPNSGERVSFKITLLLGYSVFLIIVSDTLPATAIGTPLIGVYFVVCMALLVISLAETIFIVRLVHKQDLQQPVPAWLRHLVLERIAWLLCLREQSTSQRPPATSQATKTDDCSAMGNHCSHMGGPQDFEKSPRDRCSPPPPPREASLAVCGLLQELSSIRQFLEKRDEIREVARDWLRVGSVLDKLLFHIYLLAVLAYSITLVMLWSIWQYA

[20] = molecular target: Acetylcholine receptor subunit alpha (Homo sapiens, UniProt P02708); test: as §1
Sequence of Acetylcholine receptor subunit alpha (P02708 whole entry): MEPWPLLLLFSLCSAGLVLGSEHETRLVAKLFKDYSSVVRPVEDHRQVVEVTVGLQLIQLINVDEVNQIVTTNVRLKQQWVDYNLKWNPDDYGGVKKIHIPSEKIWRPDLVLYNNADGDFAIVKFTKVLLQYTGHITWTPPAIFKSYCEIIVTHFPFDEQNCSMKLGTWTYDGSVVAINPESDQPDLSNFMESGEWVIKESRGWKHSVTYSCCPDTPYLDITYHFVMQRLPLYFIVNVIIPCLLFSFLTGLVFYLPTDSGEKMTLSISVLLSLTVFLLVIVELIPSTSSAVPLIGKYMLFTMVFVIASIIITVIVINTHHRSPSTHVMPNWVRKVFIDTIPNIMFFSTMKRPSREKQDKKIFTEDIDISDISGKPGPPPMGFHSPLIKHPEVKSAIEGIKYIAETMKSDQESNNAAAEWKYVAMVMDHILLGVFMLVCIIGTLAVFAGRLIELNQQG

Acetylcholinesterase = Acetylcholinesterase (Homo sapiens, UniProt P22303); test: as §1
Adenosine receptor A2a = Adenosine receptor A2a (Homo sapiens, UniProt P29274); test: as §1
[21] = molecular target: Alpha-1B adrenergic receptor (Homo sapiens, UniProt P35368); test: as §1
[22] = molecular target: Amine oxidase [flavin-containing] A (Homo sapiens, UniProt P21397); test: as §1
[23] = molecular target: Aryl hydrocarbon receptor (Homo sapiens, UniProt P35869); test: as §1
Aurora kinase B = Aurora kinase B (Homo sapiens, UniProt Q96GD4); test: as §1
[24] = molecular target: Beta-2 adrenergic receptor (Homo sapiens, UniProt P07550); test: as §1
Sequence of Beta-2 adrenergic receptor (P07550 whole entry): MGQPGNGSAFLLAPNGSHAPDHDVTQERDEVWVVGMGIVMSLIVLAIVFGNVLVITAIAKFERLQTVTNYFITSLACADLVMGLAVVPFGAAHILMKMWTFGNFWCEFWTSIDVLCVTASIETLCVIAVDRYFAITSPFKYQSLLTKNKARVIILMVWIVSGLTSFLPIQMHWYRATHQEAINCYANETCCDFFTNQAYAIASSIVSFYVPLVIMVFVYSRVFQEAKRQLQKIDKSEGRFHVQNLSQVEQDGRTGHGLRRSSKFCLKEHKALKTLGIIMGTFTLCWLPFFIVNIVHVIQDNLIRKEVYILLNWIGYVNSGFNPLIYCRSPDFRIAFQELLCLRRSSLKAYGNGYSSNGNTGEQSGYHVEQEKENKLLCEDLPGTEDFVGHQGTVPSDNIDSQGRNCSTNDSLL

Cannabinoid receptor 2 = Cannabinoid receptor 2 (Homo sapiens, UniProt P34972); test: as §1
D(1A) dopamine receptor = D(1A) dopamine receptor (Homo sapiens, UniProt P21728); test: as §1
D(2) dopamine receptor [25] = molecular target: T5, D(2) dopamine receptor (Homo sapiens, UniProt P14416); test: as §1
T5 sequence (P14416 whole entry): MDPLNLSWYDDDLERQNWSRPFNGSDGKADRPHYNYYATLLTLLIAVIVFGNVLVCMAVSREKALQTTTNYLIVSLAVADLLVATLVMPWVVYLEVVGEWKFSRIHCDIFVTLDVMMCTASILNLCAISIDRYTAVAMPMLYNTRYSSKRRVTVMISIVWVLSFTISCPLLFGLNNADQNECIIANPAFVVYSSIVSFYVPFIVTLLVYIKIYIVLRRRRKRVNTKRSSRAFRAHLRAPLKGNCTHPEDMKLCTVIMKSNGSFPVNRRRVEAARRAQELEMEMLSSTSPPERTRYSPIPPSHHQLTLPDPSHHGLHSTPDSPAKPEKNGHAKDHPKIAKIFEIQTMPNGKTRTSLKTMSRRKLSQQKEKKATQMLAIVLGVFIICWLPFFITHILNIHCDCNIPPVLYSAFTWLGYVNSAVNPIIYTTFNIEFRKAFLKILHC

[26] = molecular target: Glutamate receptor ionotropic, NMDA 2B (Homo sapiens, UniProt Q13224); test: as §1
Histamine H1 receptor = Histamine H1 receptor (Homo sapiens, UniProt P35367); test: as §1
[27] = molecular target: Kappa-type opioid receptor (Homo sapiens, UniProt P41145); test: as §1
Mu-type opioid receptor = Mu-type opioid receptor (Homo sapiens, UniProt P35372); test: as §1
[28] = molecular target: Muscarinic acetylcholine receptor M1 (Homo sapiens, UniProt P11229); test: as §1
[29] = molecular target: Muscarinic acetylcholine receptor M2 (Homo sapiens, UniProt P08172); test: as §1
Sequence of Muscarinic acetylcholine receptor M2 (P08172 whole entry): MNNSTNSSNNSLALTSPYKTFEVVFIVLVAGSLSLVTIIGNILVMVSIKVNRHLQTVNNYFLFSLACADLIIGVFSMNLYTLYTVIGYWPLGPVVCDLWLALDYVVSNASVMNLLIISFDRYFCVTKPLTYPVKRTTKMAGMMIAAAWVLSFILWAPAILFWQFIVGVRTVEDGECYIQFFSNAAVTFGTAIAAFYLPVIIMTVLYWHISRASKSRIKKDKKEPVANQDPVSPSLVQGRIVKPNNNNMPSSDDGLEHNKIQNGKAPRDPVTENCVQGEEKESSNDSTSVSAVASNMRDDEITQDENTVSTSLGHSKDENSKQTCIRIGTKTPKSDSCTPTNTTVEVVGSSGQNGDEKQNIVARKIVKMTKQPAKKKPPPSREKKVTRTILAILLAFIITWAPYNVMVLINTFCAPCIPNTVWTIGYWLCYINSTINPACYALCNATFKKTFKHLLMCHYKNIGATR

[30] = molecular target: Nuclear receptor subfamily 1 group I member 2 (Homo sapiens, UniProt O75469); test: as §1
[31] = molecular target: Phosphatidylinositol 4,5-bisphosphate 3-kinase catalytic subunit gamma isoform (Homo sapiens, UniProt P48736); test: as §1
[32] = molecular target: Potassium voltage-gated channel subfamily A member 5 (Homo sapiens, UniProt P22460); test: as §1
[33] = molecular target: Prostaglandin G/H synthase 2 (Homo sapiens, UniProt P35354); test: as §1
[34] = molecular target: Sodium channel protein type 5 subunit alpha (Homo sapiens, UniProt Q14524); test: as §1
[35] = molecular target: Sodium-dependent serotonin transporter (Homo sapiens, UniProt P31645); test: as §1
[36] = molecular target: Solute carrier organic anion transporter family member 1B1 (Homo sapiens, UniProt Q9Y6L6); test: as §1
Substance-P receptor = Substance-P receptor (Homo sapiens, UniProt P25103); test: as §1
[37] = molecular target: Tyrosine-protein kinase Lck (Homo sapiens, UniProt P06239); test: as §1
Vasopressin V1a receptor = Vasopressin V1a receptor (Homo sapiens, UniProt P37288); test: as §1
[38] = molecular target: Voltage-dependent L-type calcium channel subunit alpha-1C (Homo sapiens, UniProt Q13936); test: as §1
[39] = molecular target: cGMP-inhibited 3',5'-cyclic phosphodiesterase 3A (Homo sapiens, UniProt Q14432); test: as §1
[40] = molecular target: T4, 5-hydroxytryptamine receptor 2A; test: as §1; settings: filed as antagonist
[41] = molecular target: 5-hydroxytryptamine receptor 2C (Homo sapiens) (UniProt P28335); test: as §1; settings: filed as antagonist
[42] = molecular target: GABA-A receptor; anion channel; test: as §1; format: protein-complex assay
[43] = molecular target: Voltage-gated potassium channel, IKs; KCNQ1(Kv7.1)/KCNE1(MinK) (Homo sapiens, UniProt P15382+P51787); test: as §1; format: protein-complex assay
[44] = molecular target: 5-hydroxytryptamine receptor 3A (Homo sapiens) (UniProt P46098); settings: Compound concentration 10.0 uM
Sequence of 5-hydroxytryptamine receptor 3A (Homo sapiens) (P46098 whole entry): as the sequence (P46098 whole entry) above

D(2) dopamine receptor [45] = molecular target: T5, D(2) dopamine receptor; settings: Compound concentration 10.0 uM
[46] = molecular target: D(3) dopamine receptor (Homo sapiens) (UniProt P35462); settings: Compound concentration 10.0 uM
[47] = molecular target: Alpha-1B adrenergic receptor (Homo sapiens) (UniProt P35368); settings: Compound concentration 10.0 uM
[48] = molecular target: Muscarinic acetylcholine receptor M5 (Homo sapiens) (UniProt P08912); settings: Compound concentration 10.0 uM
[49] = molecular target: GABA-A receptor; anion channel (Rattus norvegicus) (UniProt O09028+P15431+P18506+P18508+P19969+P20236+P23574+P23576+P28471+P28473+P30191+P62813+P63079+P63138+Q91ZM7+Q9ES14); settings: Compound concentration 10.0 uM

T1 sequence (P25440 whole entry): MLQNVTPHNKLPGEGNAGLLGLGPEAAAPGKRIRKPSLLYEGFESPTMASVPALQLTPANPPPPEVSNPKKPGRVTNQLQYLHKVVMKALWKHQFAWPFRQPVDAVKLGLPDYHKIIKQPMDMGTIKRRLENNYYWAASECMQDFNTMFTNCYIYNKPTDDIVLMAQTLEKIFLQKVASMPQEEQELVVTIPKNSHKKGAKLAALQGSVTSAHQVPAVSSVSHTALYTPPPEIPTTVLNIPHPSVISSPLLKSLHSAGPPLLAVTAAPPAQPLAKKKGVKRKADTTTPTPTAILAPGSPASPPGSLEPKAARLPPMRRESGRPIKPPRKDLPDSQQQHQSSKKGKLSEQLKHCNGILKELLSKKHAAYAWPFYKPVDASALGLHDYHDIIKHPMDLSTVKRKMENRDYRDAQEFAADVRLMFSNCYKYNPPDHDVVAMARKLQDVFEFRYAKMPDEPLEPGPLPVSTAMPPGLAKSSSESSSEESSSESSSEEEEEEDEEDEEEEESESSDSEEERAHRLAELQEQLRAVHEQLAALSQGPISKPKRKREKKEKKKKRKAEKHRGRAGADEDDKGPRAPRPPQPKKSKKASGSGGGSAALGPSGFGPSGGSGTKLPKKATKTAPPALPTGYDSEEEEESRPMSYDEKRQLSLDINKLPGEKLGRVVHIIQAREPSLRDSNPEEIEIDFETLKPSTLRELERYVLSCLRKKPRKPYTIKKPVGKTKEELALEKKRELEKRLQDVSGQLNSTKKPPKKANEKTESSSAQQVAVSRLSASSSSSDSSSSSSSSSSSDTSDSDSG
T2 sequence (Q15059 whole entry): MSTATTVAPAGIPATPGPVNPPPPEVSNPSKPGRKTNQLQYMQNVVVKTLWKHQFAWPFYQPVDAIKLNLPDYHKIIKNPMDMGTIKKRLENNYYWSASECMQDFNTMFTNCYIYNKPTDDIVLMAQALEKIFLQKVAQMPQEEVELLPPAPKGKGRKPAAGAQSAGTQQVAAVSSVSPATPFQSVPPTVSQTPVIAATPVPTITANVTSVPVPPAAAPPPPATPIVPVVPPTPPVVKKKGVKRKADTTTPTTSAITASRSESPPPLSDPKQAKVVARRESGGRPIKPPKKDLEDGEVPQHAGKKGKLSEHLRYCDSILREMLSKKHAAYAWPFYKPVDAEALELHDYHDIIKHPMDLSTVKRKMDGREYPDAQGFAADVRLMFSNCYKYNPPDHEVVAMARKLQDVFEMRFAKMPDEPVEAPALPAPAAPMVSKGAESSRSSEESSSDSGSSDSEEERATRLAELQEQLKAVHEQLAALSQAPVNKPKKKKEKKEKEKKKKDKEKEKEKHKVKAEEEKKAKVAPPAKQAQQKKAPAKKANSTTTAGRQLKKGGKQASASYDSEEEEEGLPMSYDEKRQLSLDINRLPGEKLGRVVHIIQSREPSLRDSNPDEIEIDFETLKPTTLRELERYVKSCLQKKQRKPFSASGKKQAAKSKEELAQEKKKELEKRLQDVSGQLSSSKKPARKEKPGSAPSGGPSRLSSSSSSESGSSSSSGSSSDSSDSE

Structure (SMILES): CC(=O)Nc1c(F)cc(C(=O)N[C@H]2CC[C@H](O)CC2)cc1O[C@@H](C)c1ccccc1 [GSK046]
- IC50 [1]: 11 µM (not active)
- IC50 [2]: 36.3 µM (not active)
- IC50 [3]: 0.098 µM (active)
- Kd [4]: 0.015 µM (active)
- Kd [5]: 0.1 µM
- Kd [6]: 0.035 µM
- Kd [7]: 30 µM
- Kd [8]: 0.036 µM
- Kd [9]: 0.015 µM
- Kd [10]: 30 µM
- Kd [11]: 30 µM
- Kd [12]: 30 µM
- Kd [13]: 30 µM
- Kd [14]: 30 µM
- IC50 [15]: > 100 µM
- EC50 [16]: > 100 µM
- IC50 [16]: > 100 µM
- EC50 [17]: > 25.1 µM
- EC50 [18]: > 25.1 µM
- EC50 [19]: > 50.1 µM
- IC50 [19]: > 50.1 µM
- EC50 [20]: > 50.1 µM
- IC50 [20]: 25.1 µM
- IC50 (Acetylcholinesterase): 7.94 µM
- EC50 (Adenosine receptor A2a): 31.6 µM
- Ki [21]: > 25.1 µM
- IC50 [22]: > 100 µM
- EC50 [23]: > 100 µM
- IC50 (Aurora kinase B): > 31.6 µM
- EC50 [24]: > 100 µM
- IC50 [24]: > 100 µM
- EC50 (Cannabinoid receptor 2): > 100 µM
- IC50 (D(1A) dopamine receptor): > 100 µM
- EC50 (D(2) dopamine receptor [25]): > 100 µM
- Ki (D(2) dopamine receptor [25]): > 100 µM
- IC50 [26]: > 50.1 µM
- IC50 (Histamine H1 receptor): > 25.1 µM
- EC50 [27]: > 100 µM
- EC50 (Mu-type opioid receptor): > 100 µM
- EC50 [28]: > 50.1 µM
- IC50 [28]: > 50.1 µM
- EC50 [29]: > 50.1 µM
- IC50 [29]: > 50.1 µM
- EC50 [30]: > 50.1 µM
- IC50 [31]: > 31.6 µM
- IC50 [32]: > 50.1 µM
- IC50 [33]: > 100 µM
- IC50 [34]: > 100 µM
- IC50 [35]: > 100 µM
- IC50 [36]: > 50.1 µM
- IC50 (Substance-P receptor): > 25.1 µM
- IC50 [37]: > 31.6 µM
- IC50 (Vasopressin V1a receptor): > 39.8 µM
- IC50 [38]: 100 µM
- IC50 [39]: > 100 µM
- fpKi [40]: < 4.6
- fpKi [41]: < 4.6
- pEC50 [42]: < 4
- pIC50 [42]: < 4
- IC50 [43]: > 25.1 µM
- inhibition [44]: 3.77%
- inhibition (D(2) dopamine receptor [45]): 25.8%
- inhibition [46]: 39.1%
- inhibition [47]: -0.75%
- inhibition [48]: 0.93%
- inhibition [49]: 0.61%

Source: ChEMBL document CHEMBL4630908 (2021)
